Results reported in ChEMBL document CHEMBL1201862, “PubChem BioAssay data set” (2004).
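All cell lines were grown in 96-well plates and treated with compound for 48 hours. GI50 marks 50% less growth.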 The source made the active and inactive calls. Cut-off read from the data, not from the text of the source: active = GI50 up to about 1.1 µM and inactive = higher.

Legend:
Assay in all cases: inhibition of tumour cell growth, NCI panel, 48 h
SF-295 = tested on: SF-295
RPMI-8226 = tested on: RPMI-8226
UACC-62 = tested on: UACC-62
NCI-H522 = tested on: NCI-H522
Hs-578T = tested on: Hs-578T
OVCAR-4 = tested on: OVCAR-4
NCI-H460 = tested on: NCI-H460
T47D = tested on: T47D
K562 = tested on: K562
IGROV-1 = tested on: IGROV-1
SK-MEL-5 = tested on: SK-MEL-5
A498 = tested on: A498
SF-539 = tested on: SF-539
NCI/ADR-RES = tested on: NCI/ADR-RES
KM12 = tested on: KM12
CAKI-1 = tested on: CAKI-1
HCT-15 = tested on: HCT-15
HCC 2998 = tested on: HCC 2998
HOP-92 = tested on: HOP-92
TK-10 = tested on: TK-10

Row | Compound | GI50 (SF-295) | GI50 (RPMI-8226) | GI50 (UACC-62) | GI50 (NCI-H522) | GI50 (Hs-578T) | GI50 (OVCAR-4) | GI50 (NCI-H460) | GI50 (T47D) | GI50 (K562) | GI50 (IGROV-1) | GI50 (SK-MEL-5) | GI50 (A498) | GI50 (SF-539) | GI50 (NCI/ADR-RES) | GI50 (KM12) | GI50 (CAKI-1) | GI50 (HCT-15) [µM] | GI50 (HCC 2998) | GI50 (HOP-92) | GI50 (TK-10)
1 | CSc1nc2c3ccccc3ccn2c1C(=O)N/N=C/c1ccccc1 | 24 µM (inactive) | > 100 µM (inactive) | > 100 µM (inactive) | > 94.4 µM (inactive) | 30.8 µM (inactive) | 14.1 µM (inactive) | 17.3 µM (inactive) | 27.9 µM (inactive) | > 100 µM (inactive) | 33.7 µM (inactive) | > 74.8 µM (inactive) | 31.5 µM (inactive) | 1.43 µM (inactive) | 28.9 µM (inactive) | > 100 µM (inactive) | 14.9 µM (inactive) | > 100 | > 100 µM (inactive) | 1.65 µM (inactive) | 
2 | C/C(=N\N=C(N)N)c1c(C(=O)OCCCCCCOC(=O)c2nc3sccn3c2/C(C)=N/N=C(N)N)nc2sccn12 |  | 85.3 µM (inactive) | > 100 µM (inactive) | > 100 µM (inactive) | > 100 µM (inactive) | > 100 µM (inactive) | > 100 µM (inactive) | 16.2 µM (inactive) | 19.5 µM (inactive) | > 100 µM (inactive) | 99.1 µM (inactive) | > 100 µM (inactive) |  | > 100 µM (inactive) | > 100 µM (inactive) | > 100 µM (inactive) | > 100 | > 100 µM (inactive) | > 100 µM (inactive) | 22.8 µM (inactive)
3 | C(=N\c1cc2cc(Sc3ccccc3)ccc2[nH]1)/c1ccccc1 | 11 µM (inactive) | > 12.5 µM (inactive) | 7.11 µM (inactive) | > 12.5 µM (inactive) | > 12.5 µM (inactive) | > 12.5 µM (inactive) |  | > 12.5 µM (inactive) | 11 µM (inactive) |  | 10.6 µM (inactive) | 1.83 µM (inactive) | 0.741 µM (active) | > 12.5 µM (inactive) | 0.0931 µM (active) | > 12.5 µM (inactive) | > 12.5 | 6.41 µM (inactive) | > 12.5 µM (inactive) | 
4 | CC1OC(OC2C(OC3CCC4(C)C(CCC5(C)C4CC=C4C6CC(C)(C)CCC6(C(=O)O)CCC45C)C3(C)CO)OCC(O)C2O)C(O)C(O)C1O (stereo not drawn) | 15.1 µM (inactive) |  | 8.05 µM (inactive) | 13.3 µM (inactive) | 14.1 µM (inactive) | 11.8 µM (inactive) | 19 µM (inactive) | 22.1 µM (inactive) | 11.6 µM (inactive) | 15.6 µM (inactive) | 17.8 µM (inactive) | 14.2 µM (inactive) | 15.5 µM (inactive) | 20.9 µM (inactive) | 7.1 µM (inactive) | 18.5 µM (inactive) | 20.9 | 13.4 µM (inactive) | 10.1 µM (inactive) | 20 µM (inactive)
5 | OC1(c2ccc3ccccc3c2)c2ccc3ccccc3c2C2=NCCN21 (stereo not drawn) | 41.4 µM (inactive) | > 100 µM (inactive) | > 100 µM (inactive) |  | 24.5 µM (inactive) | 22.3 µM (inactive) | 23.6 µM (inactive) | > 100 µM (inactive) | 45 µM (inactive) | > 100 µM (inactive) | > 100 µM (inactive) | > 100 µM (inactive) | 19.5 µM (inactive) | 37.1 µM (inactive) | > 100 µM (inactive) | > 100 µM (inactive) | > 100 | 74.1 µM (inactive) | > 100 µM (inactive) | 28.3 µM (inactive)
6 | NNC(=O)c1c(Cl)c(Cl)c(Cl)c(Cl)c1-c1nc2ccccc2[nH]1 | 4.91 µM (inactive) | 7.4 µM (inactive) | 10.4 µM (inactive) | 13.4 µM (inactive) | 18.1 µM (inactive) |  | 11.8 µM (inactive) | 2.47 µM (inactive) | 3.25 µM (inactive) | 1.18 µM (inactive) | 11.2 µM (inactive) | 15 µM (inactive) | 20.4 µM (inactive) | 6.34 µM (inactive) | 6.76 µM (inactive) | 13.2 µM (inactive) | 5.07 | 8.63 µM (inactive) | 18.5 µM (inactive) | 21.6 µM (inactive)
7 | CC(NC(=O)OC(C)(C)C)C(=O)C(N)=O (stereo not drawn) |  | > 100 µM (inactive) |  |  | > 100 µM (inactive) |  | > 100 µM (inactive) | > 100 µM (inactive) | > 100 µM (inactive) |  | > 100 µM (inactive) | > 100 µM (inactive) | > 100 µM (inactive) | > 100 µM (inactive) |  |  | > 100 | > 100 µM (inactive) | > 100 µM (inactive) | > 100 µM (inactive)
8 | COC(=O)C(CCCCN)NC(=O)C(CCCCN)NC(C)=O.Cc1ccc(C(=O)Nc2ccc(S(=O)(=O)O)c3cc(S(=O)(=O)O)cc(S(=O)(=O)O)c23)cc1NC(=O)c1cccc(NC(=O)Nc2cccc(C(=O)Nc3cc(C(=O)Nc4ccc(S(=O)(=O)O)c5cc(S(=O)(=O)O)cc(S(=O)(=O)O)c45)ccc3C)c2)c1 | > 50 µM (inactive) | > 50 µM (inactive) | > 50 µM (inactive) | > 50 µM (inactive) | 39.1 µM (inactive) | 8.73 µM (inactive) | > 50 µM (inactive) | > 50 µM (inactive) | > 50 µM (inactive) | > 50 µM (inactive) | > 50 µM (inactive) | > 50 µM (inactive) | > 50 µM (inactive) | > 50 µM (inactive) | > 50 µM (inactive) | > 50 µM (inactive) | > 50 | > 50 µM (inactive) | > 50 µM (inactive) | 
